These compounds were tested against Bcl-2 G101V (Homo sapiens, UniProt P10415, G101V) (assay: Bcl-2 G101V inhibition, fluorescence polarization (Flu-BIM tracer) binding assay). Conditions: FP; 20 nM Bcl2, 5 nM Flu-BIM, 1 h incubation; read-out: Bcl-2 G101V (FP).
`CC1(C)CCC(CN2CCN(c3ccc(C(=O)NS(=O)(=O)c4ccc(NC[C@H]5COCCO5)c([N+](=O)[O-])c4)c(Oc4cnc5[nH]ccc5c4)c3)CC2)=C(c2cc(-c3ccc(C(F)(F)F)cc3)cs2)C1` [Example 40, (S)—N-((4-(((1,4-dioxan-2-yl)methyl)amino)-3-nitrophenyl)sulfonyl)-2-((1H-pyrrolo[2,3-b]pyridin-5-yl)oxy)-4-(4-((4,4-dimethyl-2-(4-(4-(trifluoromethyl)phenyl)thiophen-2-yl)cyclohex-1-en-1-yl)methyl)piperazin-1-yl)benzamide] was tested, and the IC50 was 43.4 nM.
For `CC1(C)CCC(CN2CCN(c3ccc(C(=O)NS(=O)(=O)c4ccc(NC[C@H]5CC[C@](C)(O)CC5)c([N+](=O)[O-])c4)c(Oc4cnc5[nH]ccc5c4)c3)CC2)=C(c2cc(-c3ccc(C(F)(F)F)cc3)cs2)C1` [Example 41, 2-((1H-pyrrolo[2,3-b]pyridin-5-yl)oxy)-4-(4-((4,4-dimethyl-2-(4-(4-(trifluoromethyl)phenyl)thiophen-2-yl)cyclohex-1-en-1-yl)methyl)piperazin-1-yl)-N-((4-((((1r,4r)-4-hydroxy-4-methylcyclohexyl)methyl)amino)-3-nitrophenyl)sulfonyl)benzamide], the IC50 was 34.4 nM.
With `CC1(C)CCC(CN2CCN(c3ccc(C(=O)NS(=O)(=O)c4ccc(NC[C@H]5COCCO5)c([N+](=O)[O-])c4)c(Oc4cnc5[nH]ccc5c4)c3)CC2)=C(c2cc(-c3ccc(F)cc3F)cs2)C1` [Example 42, (S)—N-((4-(((1,4-dioxan-2-yl)methyl)amino)-3-nitrophenyl)sulfonyl)-2-((1H-pyrrolo[2,3-b]pyridin-5-yl)oxy)-4-(4-((2-(4-(2,4-difluorophenyl)thiophen-2-yl)-4,4-dimethylcyclohex-1-en-1-yl)methyl)piperazin-1-yl)benzamide] the IC50 was 50.7 nM.
For `CC1(C)CCC(CN2CCN(c3ccc(C(=O)NS(=O)(=O)c4ccc(NC[C@H]5CC[C@](C)(O)CC5)c([N+](=O)[O-])c4)c(Oc4cnc5[nH]ccc5c4)c3)CC2)=C(c2cc(-c3ccc(F)cc3F)cs2)C1` [Example 43, 2-((1H-pyrrolo[2,3-b]pyridin-5-yl)oxy)-4-(4-((2-(4-(2,4-difluorophenyl)thiophen-2-yl)-4,4-dimethylcyclohex-1-en-1-yl)methyl)piperazin-1-yl)-N-((4-((((1r,4r)-4-hydroxy-4-methylcyclohexyl)methyl)amino)-3-nitrophenyl)sulfonyl)benzamide], the IC50 was 33.7 nM.
Work on `CC1(C)CCC(CN2CCN(c3ccc(C(=O)NS(=O)(=O)c4ccc(NC[C@H]5COCCO5)c([N+](=O)[O-])c4)c(Oc4cnc5[nH]ccc5c4)c3)CC2)=C(c2cc(-c3ccc(Cl)cc3F)cs2)C1` [Example 44, (S)—N-((4-(((1,4-dioxan-2-yl)methyl)amino)-3-nitrophenyl)sulfonyl)-2-((1H-pyrrolo[2,3-b]pyridin-5-yl)oxy)-4-(4-((2-(4-(4-chloro-2-fluorophenyl)thiophen-2-yl)-4,4-dimethylcyclohex-1-en-1-yl)methyl)piperazin-1-yl)benzamide] yielded an IC50 of 46.3 nM.
`CC1(C)CCC(CN2CCN(c3ccc(C(=O)NS(=O)(=O)c4ccc(NC[C@H]5CC[C@](C)(O)CC5)c([N+](=O)[O-])c4)c(Oc4cnc5[nH]ccc5c4)c3)CC2)=C(c2cc(-c3cc(F)c(F)c(F)c3)cs2)C1` [Example 45, 2-((1H-pyrrolo[2,3-b]pyridin-5-yl)oxy)-4-(4-((4,4-dimethyl-2-(4-(3,4,5-trifluorophenyl)thiophen-2-yl)cyclohex-1-en-1-yl)methyl)piperazin-1-yl)-N-((4-((((1r,4r)-4-hydroxy-4-methylcyclohexyl)methyl)amino)-3-nitrophenyl)sulfonyl)benzamide] was tested, and the IC50 was 49 nM.
With `CC1(C)CCC(CN2CCN(c3ccc(C(=O)NS(=O)(=O)c4ccc(NC[C@H]5CC[C@](C)(O)CC5)c([N+](=O)[O-])c4)c(Oc4cnc5[nH]ccc5c4)c3)CC2)=C(c2cc(-c3ccc(F)c(F)c3F)cs2)C1` [Example 46, 2-((1H-pyrrolo[2,3-b]pyridin-5-yl)oxy)-4-(4-((4,4-dimethyl-2-(4-(2,3,4-trifluorophenyl)thiophen-2-yl)cyclohex-1-en-1-yl)methyl)piperazin-1-yl)-N-((4-((((1r,4r)-4-hydroxy-4-methylcyclohexyl)methyl)amino)-3-nitrophenyl)sulfonyl)benzamide] the IC50 was 43.5 nM.
Work on `CC1(C)CCC(CN2CCN(c3ccc(C(=O)NS(=O)(=O)c4ccc(NC[C@H]5COCCO5)c([N+](=O)[O-])c4)c(Oc4cnc5[nH]ccc5c4)c3)CC2)=C(c2cc(-c3ccc(C(F)F)cc3)cs2)C1` [Example 48, (S)—N-((4-(((1,4-dioxan-2-yl)methyl)amino)-3-nitrophenyl)sulfonyl)-2-((1H-pyrrolo[2,3-b]pyridin-5-yl)oxy)-4-(4-((2-(4-(4-(difluoromethyl)phenyl)thiophen-2-yl)-4,4-dimethylcyclohex-1-en-1-yl)methyl)piperazin-1-yl)benzamide] yielded an IC50 of 36.7 nM.
`CC1(C)CCC(CN2CCN(c3ccc(C(=O)NS(=O)(=O)c4ccc(NC[C@H]5CC[C@](C)(O)CC5)c([N+](=O)[O-])c4)c(Oc4cnc5[nH]ccc5c4)c3)CC2)=C(c2cc(-c3ccc(C(F)F)cc3)cs2)C1` [Example 49, 2-((1H-pyrrolo[2,3-b]pyridin-5-yl)oxy)-4-(4-((2-(4-(4-(difluoromethyl)phenyl)thiophen-2-yl)-4,4-dimethylcyclohex-1-en-1-yl)methyl)piperazin-1-yl)-N-((4-((((1r,4r)-4-hydroxy-4-methylcyclohexyl)methyl)amino)-3-nitrophenyl)sulfonyl)benzamide] gave an IC50 of 43.6 nM.
With `CC1(C)CCC(CN2CCN(c3ccc(C(=O)NS(=O)(=O)c4ccc(NC[C@H]5COCCO5)c([N+](=O)[O-])c4)c(Oc4cnc5[nH]ccc5c4)c3)CC2)=C(c2cc(-c3ccc(F)c(F)c3)cs2)C1` [Example 50, (S)—N-((4-(((1,4-dioxan-2-yl)methyl)amino)-3-nitrophenyl)sulfonyl)-2-((1H-pyrrolo[2,3-b]pyridin-5-yl)oxy)-4-(4-((2-(4-(3,4-difluorophenyl)thiophen-2-yl)-4,4-dimethylcyclohex-1-en-1-yl)methyl)piperazin-1-yl)benzamide] the IC50 was 42.7 nM.
Work on `CC1(C)CCC(CN2CCN(c3ccc(C(=O)NS(=O)(=O)c4ccc(NC[C@H]5CC[C@](C)(O)CC5)c([N+](=O)[O-])c4)c(Oc4cnc5[nH]ccc5c4)c3)CC2)=C(c2cc(-c3ccc(F)c(F)c3)cs2)C1` [Example 51, 2-((1H-pyrrolo[2,3-b]pyridin-5-yl)oxy)-4-(4-((2-(4-(3,4-difluorophenyl)thiophen-2-yl)-4,4-dimethylcyclohex-1-en-1-yl)methyl)piperazin-1-yl)-N-((4-((((1r,4r)-4-hydroxy-4-methylcyclohexyl)methyl)amino)-3-nitrophenyl)sulfonyl)benzamide] yielded an IC50 of 45.5 nM.
`CC1(C)CCC(CN2CCN(c3ccc(C(=O)NS(=O)(=O)c4ccc(NC[C@H]5CC[C@](C)(O)CC5)c([N+](=O)[O-])c4)c(Oc4cnc5[nH]ccc5c4)c3)CC2)=C(c2cc(-c3cc(F)c(F)cc3F)cs2)C1` [Example 53, 2-((1H-pyrrolo[2,3-b]pyridin-5-yl)oxy)-4-(4-((4,4-dimethyl-2-(4-(2,4,5-trifluorophenyl)thiophen-2-yl)cyclohex-1-en-1-yl)methyl)piperazin-1-yl)-N-((4-((((1r,4r)-4-hydroxy-4-methylcyclohexyl)methyl)amino)-3-nitrophenyl)sulfonyl)benzamide] was tested, and the IC50 was 36.6 nM.

Reference: patent US12577245B2, “Sulfonyl benzamide derivatives as Bcl-2 inhibitors” (ASCENTAGE PHARMA (SUZHOU) CO., LTD., priority 2021, dated 2026)
